SMILES strings stand for the structures.

The test deals with human PBMC cytotoxicity, percent of cell control. Nature of the test: cytotoxicity in human PBMC, dose response, cytotoxicity control for HIV-1 antiviral lead project, cell-based, PBMC assay companion, set 2 (AID 504571).
On to `COc1ccc(Cn2c(O)cc3nn(-c4nc5ccccc5s4)c(=O)c-3c2C)cc1`, for which the CC50 was 19.1 µM.

Turning to `COc1ccccc1Cn1c(O)cc2nn(-c3nc4ccccc4s3)c(=O)c-2c1C`, the CC50 is 29.6 µM.

Consider `Cc1c2c(=O)n(-c3nc4ccccc4s3)nc-2cc(O)n1CCc1cccs1`, for which the CC50 is 40.8 µM.

Turning to `COc1ccc(CCn2c(O)cc3nn(-c4nc5ccccc5s4)c(=O)c-3c2C)cc1`, the CC50 is 49.8 µM.

Take `Cc1c2c(=O)n(-c3nc4ccccc4s3)nc-2cc(O)n1Cc1ccccc1`: the CC50 is 21 µM.

On to `Cc1c2c(=O)n(-c3nc4ccccc4s3)nc-2cc(O)n1CCc1ccc(O)cc1`, for which the CC50 was 2.55 µM.

With `Cc1c2c(=O)n(-c3nc4ccccc4s3)nc-2cc(O)n1Cc1cccnc1`, the CC50 is 2.24 µM.

Turning to `Cc1c2c(=O)n(-c3nc4ccccc4s3)nc-2cc(O)n1CCC(C)C`, the CC50 was 45 µM.

For the molecule `Cc1c2c(=O)n(-c3nc4ccccc4s3)nc-2cc(O)n1C1CC1`, the CC50 is 5.72 µM.

Turning to `Cc1c2c(=O)n(-c3nc4ccccc4s3)nc-2cc(O)n1Cc1ccc(F)cc1`, the CC50 was 19.1 µM.

In the case of `Cc1c2c(=O)n(-c3nc4ccccc4s3)nc-2cc(O)n1Cc1ccccc1Cl`, the CC50 was 35.6 µM.

For the molecule `Cc1c2c(=O)n(-c3nc4ccccc4s3)nc-2cc(O)n1Cc1ccncc1`, the CC50 is 2.64 µM.

As to `Cc1c2c(=O)n(-c3nc4ccccc4s3)nc-2cc(O)n1Cc1cccs1`, the CC50 was 14.2 µM.

These data come from PubChem BioAssay AID504571 (Southern Research Specialized Biocontainment Screening …, 2011).
